Data as given in patent US20240295566A1, “METHOD FOR DIAGNOSING AND TREATING METABOLIC DISORDERS” (Centre for Chinese Herbal Medicine Drug Development Limited, priority 2023, published 2024).

Columns and labels:
[1] = Oral glucose tolerance test (OGTT) in mice; type: in vivo, mouse; details: for glucose tolerance in control mice (OGTT): control mice without tryptamine, inhibitor alone; for tryptamine-induced glucose intolerance (OGTT): tryptamine (10 mg/kg)-treated mice plus inhibitor i.p. (U0126 20 mg/kg, PD98059 10 mg/kg, EPPTB 10 mg/kg); for glucose tolerance (OGTT): normal mice, substance given alone (tryptamine 0.4, 2, 10 mg/kg; phenethylamine 1, 2, 5 mg/kg i.p.)
Procedure: (§1) For the oral glucose tolerance test (OGTT), mice were fasted for 12 hours (overnight) and administered with tryptamine, ERK inhibitors, TAAR1 antagonist or IAA at indicated dosages. After 30 min, mice were given glucose at a dosage of 2 g/kg. Blood samples were collected from the tail vein for glucose measurement using Accu-Chek glucose meters at 0, 15, 30, 60, 90 and 120 min after the glucose challenge. For the insulin tolerance test (ITT), mice were fasted for 4 hours and administered with tryptamine, ERK inhibitors or a TAAR1 antagonist at indicated dosages. After 30 min, insulin (1 U/kg) was injected intraperitoneally into the mice. Blood glucose levels were measured as per OGTT. For the measurement of serum insulin and TG, serum was collected 120 min after the mice were treated with tryptamine.

ERK1/2 phosphorylation [2] = assay: Western blot of ERK activation in 3T3-L1 cells; type: cell-based; details: for ERK phosphorylation induced by tryptamine and phenethylamine: tryptamine or phenethylamine 25 μM, pre-treatment with inhibitor 20 μM; for ERK1/2 phosphorylation: 25 μM
Procedure: (§2) 3T3-L1 adipocytes (ATCC CL-173) were cultured and maintained in DMEM with 10% (v/v) FBS. For the glucose uptake assay, 3T3-L1 cells were serum- and glucose-starved for 3 hours and then incubated with glucose, FBS, insulin and tryptamine for 30 min as indicated. To assess the effect of tryptamine on insulin signaling, 3T3-L1 cells were pre-treated with or without tryptamine, ERK inhibitor or TAAR1 antagonist EPPTB, and then treated with insulin at the indicated concentration. The effect of IAA on insulin signaling was evaluated by treating 3T3-L1 cells with or without IAA followed by insulin for the indicated times. Tryptamine, U0126 and EPPTB were dissolved in DMSO at 100 mM as a stock solution. For cAMP measurements, 3T3-L1 cells were pre-treated with or without EPPTB for 60 min and then treated with tryptamine for the indicated times.
(§3) Frozen tissues and harvested cells were lysed in RIPA buffer with a protease inhibitor cocktail. For western blotting, the cell lysates and tissue lysates were centrifuged at 15,000 rpm for 15 min at 4° C. The supernatant was mixed with 5× loading buffer and heated at 98° C. on a dry bath for 10 min. The target proteins were then detected in the samples as per manufacturer instructions. The blots were incubated with HRP-linked anti-rabbit IgG or anti-mouse IgG and reacted with enhanced chemiluminescence. The quantification of protein bands from western blots was analyzed using Image J.

ERK1/2 phosphorylation [3] = assay: Western blot of ERK activation in WAT, liver and skeletal muscle lysates from mice; type: in vivo, mouse; details: for tryptamine-induced ERK phosphorylation in tissues: tryptamine 10 mg/kg plus inhibitor (U0126 20 mg/kg or EPPTB 10 mg/kg), WAT and liver lysates
Procedure: as §3

[4] = Insulin tolerance test (ITT) in mice; type: in vivo, mouse; details: for insulin sensitivity in control mice (ITT): control mice without tryptamine, inhibitor alone; for tryptamine-induced insulin resistance (ITT): tryptamine (10 mg/kg)-treated mice plus inhibitor i.p. (U0126 20 mg/kg, PD98059 10 mg/kg, EPPTB 10 mg/kg); for insulin sensitivity (ITT): normal mice, substance given alone (tryptamine 0.4, 2, 10 mg/kg; phenethylamine 1, 2, 5 mg/kg i.p.)
Procedure: as §1

[5] = test system: insulin-induced Akt phosphorylation; assay: Western blot of insulin-stimulated AKT phosphorylation in WAT, liver and skeletal muscle lysates from mice; type: in vivo, mouse; details: insulin 1 U/kg; for inhibitory effects of tryptamine on insulin-stimulated AKT phosphorylation in tissues: tryptamine 10 mg/kg plus inhibitor (U0126 20 mg/kg or EPPTB 10 mg/kg), WAT and liver lysates; for insulin-induced Akt phosphorylation in major metabolic tissues: WAT, liver, skeletal muscle, tryptamine 10 mg/kg or phenethylamine 5 mg/kg i.p.
Procedure: as §3

[6] = test system: insulin-induced AKT phosphorylation; assay: Western blot of insulin signaling (AKT phosphorylation) in 3T3-L1 cells; type: cell-based; details: insulin 20 nM; for inhibitory effects of tryptamine and phenethylamine on insulin-stimulated AKT phosphorylation / insulin-induced AKT phosphorylation: 3T3-L1 cells; for inhibitory effects of tryptamine and phenethylamine on insulin-stimulated AKT phosphorylation: tryptamine or phenethylamine 25 μM, inhibitor 20 μM; for insulin-induced AKT phosphorylation: precursors and metabolites at 100 μM; for insulin signaling: 3T3-L1 adipocytes, 25 μM
Procedure: as §2, with “For” for “3T3-L1 adipocytes (ATCC CL-173) were cultured and maintained in DMEM with 10% (v/v) FBS. For”
as §3

[7] = mouse, in vivo, 15 min
Procedure: (§4) Tryptamine at a dosage of 5 mg/kg (dissolved in 0.5% CMC-Na) was orally administered to mice. After 15 min, mice were euthanized by isoflurane and sacrificed by cervical dislocation. Serum, liver, skeletal muscle and WAT were collected and stored at −80° C. until analysis. About 80 mg of biological tissues were extracted with a 20× volume of 70% methanol (m/v) and then homogenized with steel beads. The samples were then centrifuged at 14,000 rpm at 4° C. for 15 min. About 200 μL of the supernatant was transferred to new tubes for LC-MS analysis.

Serum TG level in mice = type: in vivo, mouse; details: normal mice, i.p.
Procedure: as §1

[8] = test system: insulin signaling-related proteins; assay: Phospho-proteomics study of mouse tissue; type: in vivo; details: mice, insulin-sensitive tissues (WAT), tryptamine treatment
Procedure: Mice were fasted for 4 hours and orally administered with tryptamine or vehicle. The WAT tissues were collected for the phosphoproteomics study. Mice tissue samples used for the TMT-labeled phosphoproteomics study were prepared as previously reported. An Easy nLC system (Thermo Fisher Scientific) with an Acclaim PepMap RSLC column (50 μm×15 cm) was used to separate the TMT-labelled peptides. The mobile phase used in LC-MS-Orbitrap was A: water with 0.1% formic acid and B: 80% acetonitrile, 20% water with 0.1% formic acid. The elution gradient was set as 0-5 min in 0-6% buffer B, 5-45 min in 6-28% buffer B, 45-50 min in 28%-38% buffer B, 50-55 min 38-100% buffer B and maintained during […] in 100% buffer B. The obtained MS/MS spectra were processed by Proteome Discoverer (Thermo Fisher Scientific) and searched using MASCOT engine 2.6. All protein sequences were aligned to the Mus musculus database downloaded from UniProt (http://www.uniprot.org). The proteins with a fold change>1.2 or <0.8 and a p-value<0.05 were considered as differentially expressed proteins.

3T3-L1 adipocytes = assay: Glucose uptake assay in 3T3-L1 cells; type: cell-based; details: 5, 10 and 25 μM
Procedure: as §2

[9] = Tissue distribution of tryptamine; details: mice, oral gavage of tryptamine 5 mg/kg, within 15 min
Procedure: as §4

[10] = Intravenous glucose tolerance test (IVGTT) in monkeys; type: in vivo, Macaca fascicularis; details: normal monkeys, single dose 10 mg/kg via oral gavage
[11] = Serum insulin level in monkeys; type: in vivo, Macaca fascicularis; details: normal monkeys, single dose 10 mg/kg via oral gavage
Procedure: The first crab-eating macaques (Macaca fascicularis) metabolomics study is performed with ethics approval (No. YMB1704) by Yunnan Yinmore Biotechnology company (Kunming, China). The diagnosis of diabetes for monkeys was based on published criteria. Specifically, age-matched (10-23 years old) monkeys were categorized as normal (Define as FBG<75 mg/dL and Hb1Ac<3.5%), pre-diabetes (FBG 80-130 mg/dL and Hb1Ac 4.0%-6.0%) and diabetes (FBG>130 mg/dL and Hb1Ac>6.0%) (n=26 for each group). Biological samples including serum and feces were collected and stored at −80° C. until analysis. The second crab-eating macaques (n=5) intervention study is performed with ethics approval (No. HZ2021047) by Huazhen Biosciences company (Guangzhou, China). Biochemical parameters including OGTT and serum insulin level were measured before and after tryptamine treatment. No crab-eating macaques were treated with anti-diabetic medication during these studies.
To understand the role of tryptamine and phenethylamine in the pathophysiology of insulin resistance, tryptamine and phenethylamine were administered to normal mice within the pathophysiological range detected in the fecal samples of T2D subjects. […]

[12] = antibiotics-treated mice colonized with R. gnavus ATCC 29149, EPPTB 10 mg/kg i.p.

Compound: CCOc1cccc(NC(=O)c2ccc(N3CCCC3)c(C(F)(F)F)c2)c1 [EPPTB, N-(3-ethoxy-phenyl)-4-pyrrolidin-1-yl-3-trifluoromethyl-benzamide]
- R. gnavus-induced impaired glucose tolerance (OGTT) [1, 12]: partially abrogated
- glucose tolerance in control mice (OGTT) [1]: did not affect
- tryptamine-induced glucose intolerance (OGTT) [1]: significantly reduced
- ERK phosphorylation induced by tryptamine and phenethylamine (ERK1/2 phosphorylation [2]): significantly downregulated
- tryptamine-induced ERK phosphorylation in tissues (ERK1/2 phosphorylation [3]): downregulated
- R. gnavus-induced lower insulin sensitivity (ITT) [4, 12]: partially abrogated
- insulin sensitivity in control mice (ITT) [4]: did not affect
- tryptamine-induced insulin resistance (ITT) [4]: significantly reduced
- inhibitory effects of tryptamine on insulin-stimulated AKT phosphorylation in tissues [5]: abolished the inhibitory effects
- inhibitory effects of tryptamine and phenethylamine on insulin-stimulated AKT phosphorylation [6]: reversed the inhibitory effects

Compound: COc1cccc(-c2cc(=O)c3ccccc3o2)c1N [PD98059]
- glucose tolerance in control mice (OGTT) [1]: negligible effects
- tryptamine-induced glucose intolerance (OGTT) [1]: significantly improved
- insulin sensitivity in control mice (ITT) [4]: negligible effects
- tryptamine-induced insulin resistance (ITT) [4]: significantly improved

Compound: N#CC(=C(/N)Sc1ccccc1N)/C(C#N)=C(\N)Sc1ccccc1N [U0126]
- glucose tolerance in control mice (OGTT) [1]: negligible effects
- tryptamine-induced glucose intolerance (OGTT) [1]: significantly improved
- ERK phosphorylation induced by tryptamine and phenethylamine (ERK1/2 phosphorylation [2]): blocked
- tryptamine-induced ERK phosphorylation in tissues (ERK1/2 phosphorylation [3]): significantly downregulated
- insulin sensitivity in control mice (ITT) [4]: negligible effects
- tryptamine-induced insulin resistance (ITT) [4]: significantly improved
- inhibitory effects of tryptamine on insulin-stimulated AKT phosphorylation in tissues [5]: abolished the inhibitory effects
- inhibitory effects of tryptamine and phenethylamine on insulin-stimulated AKT phosphorylation [6]: significantly suppressed the inhibitory effects

Compound: O=C(O)Cc1c[nH]c2ccccc12 [indole-3-acetic acid]
- glucose tolerance (OGTT) [1]: did not impair
- insulin sensitivity (ITT) [4]: did not impair
- IAA concentration relative to that of tryptamine in serum [7]: 40-100 fold
- insulin-induced AKT phosphorylation [6]: did not alter

Compound: NCCc1ccccc1 [phenethylamine]
- glucose tolerance (OGTT) [1]: remarkably inhibitory effects
- ERK1/2 phosphorylation (ERK1/2 phosphorylation [2]): induced ERK1/2 phosphorylation in a time-dependent manner
- insulin sensitivity (ITT) [4]: remarkably inhibitory effects
- insulin-induced Akt phosphorylation in major metabolic tissues [5]: significantly suppressed
- insulin signaling [6]: inhibited insulin signaling in a time-dependent manner
- serum TG levels (Serum TG level in mice): significant elevation

Compound: O=C(O)Cc1ccccc1 [phenylacetic acid]
- insulin-induced AKT phosphorylation [6]: did not alter

Compound: N[C@@H](Cc1ccccc1)C(=O)O [phenylalanine]
- insulin-induced AKT phosphorylation [6]: did not alter

Compound: NCCc1c[nH]c2ccccc12 [tryptamine]
- glucose tolerance (OGTT) [1]: remarkably inhibitory effects
- ERK1/2 phosphorylation (ERK1/2 phosphorylation [2]): induced ERK1/2 phosphorylation in a time-dependent manner
- ERK1/2 phosphorylation in insulin-sensitive tissues (ERK1/2 phosphorylation [3]; tryptamine 10 mg/kg i.p., WAT, liver, skeletal muscle): upregulated
- insulin signaling-related phospho-proteins (HSL, ERK, SH3D5) [8]: upregulated
- basal glucose uptake (3T3-L1 adipocytes): inhibited basal glucose uptake in a dose-dependent manner
- insulin sensitivity (ITT) [4]: remarkably inhibitory effects
- metabolite indole-3-acetic acid (IAA) levels in serum and insulin-sensitive tissues [9]: significantly increased
- tryptamine levels in serum and insulin-sensitive tissues ([9]; serum, WAT, liver, skeletal muscle): significantly increased
- insulin-induced Akt phosphorylation in major metabolic tissues [5]: significantly suppressed
- blood glucose levels in the glucose challenge (IVGTT) [10]: higher blood glucose levels
- serum insulin levels [11]: significant elevation
- insulin signaling [6]: inhibited insulin signaling in a time-dependent manner
- serum TG levels (Serum TG level in mice): significant elevation

Compound: N[C@@H](Cc1c[nH]c2ccccc12)C(=O)O [tryptophan]
- insulin-induced AKT phosphorylation [6]: did not alter
